One data set relates to Plasmodium falciparum. As to the kind of experiment: Antiplasmodial activity against Plasmodium falciparum Dd2 incubated under low oxygen conditions after 72 hrs by SYBR green assay. The format is functional, organism-based. The conditions noted are these: Dd2, 72 h.
Data set [1] in a line: Cytotoxicity against HEK293 cells assessed as reduction in cell viability at 50 uM after 24 hrs by resazurin dye based fluorescence assay. The conditions noted are these: human, read-out: INH. (Resazurin is reduced to fluorescent resorufin, in cell work by metabolically active cells.)
The test system of data set [2] is HEK293. As to the kind of experiment: Cytotoxicity against HEK293 cells assessed as reduction in cell viability up to 3.125 uM after 24 hrs by resazurin dye based fluorescence assay. The conditions noted are these: human, hek293, 24 h.
Data set [3] relates to HEK293. As to the kind of experiment: Cytotoxicity against HEK293 cells assessed as reduction in cell viability at 100 uM after 24 hrs by resazurin dye based fluorescence assay. The conditions noted are these: human, hek293, 24 h.

Molecules are shown by their SMILES. pIC50: −log10 of the molar value. Some results are limits rather than exact numbers.

On to `CCCCCC(=O)c1c(O)cc(O)c2c1OC1=C(C(=O)C(C)(C)C(=O)C1(C)C)C2CC(C)C` (racemic), for which the pIC50 in the data set with Plasmodium falciparum is 7.00. Moreover, the cytotoxicity at 24 h, 50 µM in data set [1] worked out at 58%. Also, the Activity result with HEK293 [2] is reported as “Non-toxic”. For the compound `CCCCCC(=O)c1c(O)cc(O)cc1O`, the pIC50 with Plasmodium falciparum is less than 4.10. In the case of `CC(=O)O[C@H]1CC[C@]2(C)[C@H]3CC=C4[C@@H]5[C@@H](C)[C@H](C)CC[C@]5(C(=O)O)CC[C@@]4(C)[C@]3(C)CC[C@H]2C1(C)C` [O-ACETYLURSOLIC ACID], in the data set with Plasmodium falciparum, the pIC50 is 4.92. `CC(C)=CCCC1=CCC2(C(=O)C(C)(C)C(=O)C(C)(C)C2=O)C(CC(C)C)C1` (racemic) gave a pIC50 in the data set with Plasmodium falciparum of 5.42. Besides, the Activity result with HEK293 [3] is “Non-toxic”.

In turn, `C[C@H]1[C@H](C)CC[C@]2(C(=O)O)CC[C@]3(C)C(=CC[C@@H]4[C@@]5(C)CC[C@H](O)C(C)(C)[C@@H]5CC[C@]43C)[C@H]12` [URSOLIC ACID] showed a pIC50 with Plasmodium falciparum of less than 4.40. Turning to `C[C@@H]1CC[C@H]2[C@@H](C)C(=O)O[C@@H]3O[C@@]4(C)CC[C@@H]1[C@]32OO4` [ARTEMISININ], the pIC50 with Plasmodium falciparum was 8.21. In the data set on Plasmodium falciparum, `C=C(C)[C@@H]1CC[C@]2(C(=O)O)CC[C@]3(C)[C@H](CC[C@@H]4[C@@]5(C)CC[C@H](O)C(C)(C)[C@@H]5CC[C@]43C)[C@@H]12` [BETULINIC ACID] had a pIC50 of 5.46.

One may read the pIC50 as the IC50 on a negative log10 scale, so that one unit is a factor of ten. A high value points to a low IC50.

The record behind these values is ChEMBL document CHEMBL3792287, “Antiplasmodial phloroglucinol derivatives from Syncarpia glomulifera” (Bioorg Med Chem, 2016).
